We go through 77 compounds from the METLIN SMRT retention time set (Domingo-Almenara et al. 2019).

The nature of this series: gradient 5% acetonitrile 3 min, to 50% in 2 min, to 85% in 15 min, held 3 min, 100 µL/min. Particulars: column: Zorbax Extend-C18 2.1 x 50 mm; eluents: water / acetonitrile, 0.1% formic acid. Put shortly:
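Values are retention times taken from adduct peaks that software picked and an analyst inspected. The pure standards were run as mixtures of ~100 molecules on HPLC linked to a quadrupole time-of-flight mass spectrometer, in positive and negative ionization mode. A Zorbax Extend-C18 column (2.1 × 50 mm, 1.8 μm) was used at 100 μL/min with water and acetonitrile, each including 0.1% formic acid.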
Take `CC1(C)CC(=O)C2=C(C1)Nc1ccccc1N(CC(=O)Nc1cccc(F)c1)C2c1ccco1` (configuration not stated): the RP-LC retention time is 924 s.

As for `COc1ccc(CNC(=O)Nc2nnc(-c3ccc4c(c3)CCCC4)o2)cc1`, the RP-LC retention time is 925 s.

In the case of `Cc1nnc(-c2cn(CC(=O)Nc3ccc(Br)cc3F)c3ccccc23)o1`, the RP-LC retention time stood at 890 s.

As to `COC(=O)c1cccc(NC(=O)CSc2nccc(N3CCN(c4cccc(OC)c4)CC3)n2)c1`, the RP-LC retention time turned out to be 743 s.

On to `O=c1c2nc(-c3ccc(F)cc3)cn2ccn1-c1ccc2c(c1)CCC2`, for which the RP-LC retention time is 945 s.

For the compound `Cc1ccc(NC(=O)N2CCC(CCN)CC2)cc1`, the RP-LC retention time was found to be 589 s.

Consider `COc1ccc(OC)c(NC(=O)N2CCN(c3ccc(=O)n(-c4ccc(C)c(C)c4)n3)CC2)c1`, for which the RP-LC retention time was determined as 880 s.

Regarding `COc1ccc(N2CCN(C(=O)c3cc(NC(=O)C(C)C)cc4nc(C)ccc34)CC2)cc1`, the RP-LC retention time is 636 s.

Compound `CCCn1cnc2ccc(-c3noc(CNC(=O)c4cccs4)n3)cc21` came in with an RP-LC retention time of 652 s.

In the case of `CN1C(=O)CSc2cnn(CC(=O)N3CCN(c4ccc(F)cc4)CC3)c(=O)c21`, the RP-LC retention time was found to be 706 s.

In turn, `COc1ccc(-n2nc(C(=O)N3CCCCC3c3cccnc3)c(=O)n(C)c2=O)cc1` (configuration not stated) yielded an RP-LC retention time of 638 s.

As for `FC1(F)CN[C@H](c2nc(-c3ccccc3)no2)C1`, the RP-LC retention time is 794 s.

With `CCOC(=O)C1CCN(S(=O)(=O)c2cccc(-c3nnc(-c4ccc(C)cc4)o3)c2)CC1`, the RP-LC retention time stood at 1090 s.

`Cc1sc(C)c(S(=O)(=O)N2CCC3(CC2)OCCO3)c1-c1cc(C(F)(F)F)on1` yielded an RP-LC retention time of 1110 s.

Consider `O=C(Nc1nnc(C2CC(=O)N(c3ccc(Cl)cc3)C2)o1)c1ccc(C(F)(F)F)cc1` (configuration not stated), for which the RP-LC retention time turned out to be 884 s.

Turning to `CCN1CCN(C(=O)C2CCCN(S(=O)(=O)c3ccc(OC)c(OC)c3)C2)CC1` (configuration not stated), the RP-LC retention time amounted to 593 s.

Take `O=C(NC1CCCCCCC1)C1CCN(S(=O)(=O)c2cc(C(=O)N3CCCC3)cs2)CC1`: the RP-LC retention time stood at 902 s.

For `Cc1nc2scc(CC(=O)O)n2c(=O)c1C`, the RP-LC retention time was 592 s.

Regarding `CC(C)c1ccc(S(=O)(=O)N2CCC(C(=O)NCc3csc(-c4ccccc4)n3)CC2)cc1`, the RP-LC retention time amounted to 1070 s.

On to `COc1ccccc1Cc1noc(C2CN(C(=O)c3ccccc3C(F)(F)F)C2)n1`, for which the RP-LC retention time came out at 873 s.

The compound `Cc1nc(Cn2cccc2C(=O)Nc2cccc(C#N)c2)no1` displayed an RP-LC retention time of 798 s.

Turning to `O=C(Cn1cccc1-c1nc(-c2ccc3c(c2)OCO3)no1)NC1CCCCC1`, the RP-LC retention time is 1030 s.

As for `O=C(NC1CCCCC1)N1CCC(c2nc(C3CCOCC3)no2)CC1`, the RP-LC retention time turned out to be 733 s.

`O=C(Cn1ccn2nc(-c3ccc(F)cc3)c(CO)c2c1=O)Nc1cc(F)ccc1F` gave an RP-LC retention time of 843 s.

In turn, `O=C(CN1CCN(Cc2ccc(F)cc2)C1=O)NCc1cccc(Cl)c1` had an RP-LC retention time of 846 s.

`Cc1nnc(-c2ccc3ccn(CC(=O)NC(C)(C)C)c3c2)o1` registered an RP-LC retention time of 718 s.

Regarding `Cc1ccc(C)c(-c2cc3c4nnc(CCC(=O)N5CCC(C(N)=O)CC5)n4ccn3n2)c1`, the RP-LC retention time came out at 669 s.

The compound `COc1cccc(CNC(=O)C2(C)CCCN(C(=O)Nc3ccccc3Br)C2)c1` (configuration not stated) had an RP-LC retention time of 942 s.

For the compound `O=C(CCN(CC1CCCO1)C(=O)c1ccc(C(F)(F)F)cc1)N1CCNCC1` (configuration not stated), the RP-LC retention time turned out to be 628 s.

In turn, `Cc1ccc(-c2nc(NC(=O)c3cncc(Br)c3)sc2C)cc1` yielded an RP-LC retention time of 1180 s.

In the case of `CCCN1CCN(c2cc(C(=O)O)c3cc(NS(=O)(=O)c4cc(C)c(C)cc4C)ccc3n2)CC1`, the RP-LC retention time stood at 653 s.

As for `CC(=O)N1CCc2sc(C(=O)N3CCN(c4cccc(Cl)c4)CC3)cc2C1`, the RP-LC retention time came out at 840 s.

The compound `O=C(COc1ccc2c3c(c(=O)oc2c1)CCC3)N[C@H](Cc1c[nH]c2ccccc12)C(=O)O` had an RP-LC retention time of 793 s.

As for `CCc1ccc(NC(=O)Cc2c(C)n(C)c3nc(-c4ccccc4)nn3c2=O)cc1`, the RP-LC retention time came out at 887 s.

For `CCn1cc(C(=O)NCc2ccccc2C(F)(F)F)c2cccnc21`, the RP-LC retention time turned out to be 863 s.

`O=C(CC1CCCCC1)Nc1ccc(-c2nnc3n2CCCC3)cc1` yielded an RP-LC retention time of 719 s.

Take `COCCC1CCOC2(CCN(C(=O)C3CCN(C(C)=O)CC3)CC2)C1` (configuration not stated): the RP-LC retention time was 646 s.

`CCC1CCCCN1C(=O)c1cnc2nc(C)ccc2c1Nc1ccc(F)c(C)c1` (configuration not stated) came in with an RP-LC retention time of 680 s.

On to `Cn1nc2c(c1NC(=O)Cc1ccc3c(c1)OCO3)CCC2`, for which the RP-LC retention time came out at 644 s.

In turn, `CCc1cc(-c2csc(S(=O)(=O)NCCCN3CCN(c4ccccc4)CC3)c2)on1` came in with an RP-LC retention time of 736 s.

As for `Cc1cc(C)c(S(=O)(=O)NC2CCCN(c3ccc(=O)n(C)n3)C2)c(C)c1` (configuration not stated), the RP-LC retention time was determined as 844 s.

On to `O=C(NCCOc1ccc(F)cc1)c1ccc2nsnc2c1`, for which the RP-LC retention time worked out at 786 s.

`Cc1cccc(CNc2cc(-n3cccn3)ncn2)c1` returned an RP-LC retention time of 648 s.

With `COc1ccc2c(c1)C1(CCN(C(=O)Nc3ccccc3C)C1)C(=O)N2` (configuration not stated), the RP-LC retention time was 707 s.

As for `O=C(CN1C(=O)CC(c2ccccc2)S(=O)(=O)c2ccccc21)NC1CCCC1` (configuration not stated), the RP-LC retention time amounted to 831 s.

`Cc1ccc(CN2CC(F)(F)C[C@H]2c2nnc(-c3cnccn3)o2)c(C)c1` had an RP-LC retention time of 990 s.

For `O=c1ccn(-c2ccc(F)c(F)c2)nc1-c1nc(-c2ccc(F)cc2)no1`, the RP-LC retention time turned out to be 904 s.

`O=C(NCCn1c(=O)n(Cc2ccccc2)c2cccnc21)c1ccco1` registered an RP-LC retention time of 725 s.

In turn, `CCCNC(=O)C1CCCN(c2ccc(SCC(=O)Nc3ccc4c(c3)OCO4)nn2)C1` (configuration not stated) yielded an RP-LC retention time of 642 s.

In the case of `Cc1cccc(-c2nc3nc(C)cc(N4CCCC4)n3n2)c1`, the RP-LC retention time is 768 s.

Compound `COc1ccc(CCS(=O)(=O)NCC2CCN(Cc3ccccc3SC)CC2)cc1` gave an RP-LC retention time of 598 s.

Compound `Cc1nc(-c2ccccc2)cc2nn(CC(=O)NCc3ccc(F)cc3)c(=O)n12` gave an RP-LC retention time of 559 s.

Regarding `COCCNC(=O)c1ccccc1-c1ocnc1C(=O)OC(C)C`, the RP-LC retention time came to 676 s.

With `O=C(Nc1cc(C(F)(F)F)ccc1Cl)c1ccc(S(=O)(=O)N2CCCCC2)cc1`, the RP-LC retention time was found to be 1080 s.

Regarding `O=C(NCCCN1CCCCCC1)c1nnc(-c2ccc(S(=O)(=O)N3CCCC3)cc2)o1`, the RP-LC retention time was determined as 648 s.

In turn, `CNC(=O)N1CCCN(C2=NS(=O)(=O)C(c3ccc(Cl)cc3)=C2C)CC1` returned an RP-LC retention time of 703 s.

`O=S(=O)(NCc1nc(-c2cccc(-c3ccn[nH]3)c2)no1)c1ccc(F)cc1` gave an RP-LC retention time of 765 s.

In the case of `Cc1oc(-c2ccccc2)nc1Cc1noc(-c2ccccc2F)n1`, the RP-LC retention time was 675 s.

`Cc1nn(CC(=O)NCc2ccco2)c(=O)c2c(-n3cccc3)n(-c3ccc(Cl)cc3)nc12`: the RP-LC retention time came out at 990 s.

Turning to `O=C(N[C@H]1C[C@@H]2C[C@H]1CN2C(=O)c1cc2c(s1)CCCC2)c1cccnc1`, the RP-LC retention time was found to be 731 s.

The compound `Cc1cc(OCC(=O)Nc2ccccc2C(F)(F)F)nc(N2CCN(c3ccccc3)CC2)n1` showed an RP-LC retention time of 971 s.

The compound `Cc1nc(CNC(=O)[C@H]2CCCN2S(=O)(=O)c2ccc3c(c2)oc(=O)n3C)cs1` came in with an RP-LC retention time of 655 s.

On to `COc1cccc(-c2noc(Cn3nc4ccc(-c5ccc(C)c(C)c5)nn4c3=O)n2)c1OC`, for which the RP-LC retention time came out at 969 s.

Regarding `O=c1n(CCOc2ccc(F)cc2)nc2c(S(=O)(=O)N3CCCCC3)cccn12`, the RP-LC retention time was 894 s.

The compound `COC(=O)CSc1nnc(-c2sc3ncccc3c2N)n1C1CC1` registered an RP-LC retention time of 694 s.

`O=S(=O)(Nc1cccn2c(C3CCC3)nnc12)c1ccc2c(c1)CCCC2` came in with an RP-LC retention time of 933 s.

Consider `O=C(Nc1ccc(C(=O)NCCCN2CCN(C3CCCCC3)CC2)cc1)C1=CSCCO1`, for which the RP-LC retention time is 579 s.

In the case of `Cc1ccc(C(=O)NCc2ccc3c(c2)CCCN3C(=O)C2CCC2)c(C)c1`, the RP-LC retention time came out at 941 s.

Take `COc1cc(C(=O)NC2CCN(c3cc(-c4ccc(Cl)cc4)[nH]n3)C2)cc(OC)c1OC` (configuration not stated): the RP-LC retention time amounted to 767 s.

Regarding `COc1ccc(Nc2c(-c3ccc(Cl)cc3)nc3ncccn23)cc1OC`, the RP-LC retention time worked out at 748 s.

`CCn1c(=O)c2ccccc2n(Cc2nc(-c3ccc(OC(C)C)cc3)no2)c1=O` gave an RP-LC retention time of 1050 s.

In the case of `COc1cccc(CC(=O)Nc2ccc(-c3nc(Cn4cccn4)c(C)o3)cc2)c1`, the RP-LC retention time was found to be 848 s.

Compound `O=C(Nc1ccc(S(=O)(=O)Nc2nccs2)cc1)c1sc2ccccc2c1Cl` had an RP-LC retention time of 799 s.

`CC(C)N1C(=O)c2cccnc2Sc2cc(NC(=O)c3cccc(F)c3)ccc21` displayed an RP-LC retention time of 901 s.

`CCCn1c(C2CCN(C(=O)c3ccc(Br)o3)C2)nc2cccnc21` (configuration not stated) gave an RP-LC retention time of 735 s.

As for `Cc1ccc(S(=O)(=O)N2CCC3(CC2)NCCN=C3NCc2ccccc2F)cc1C`, the RP-LC retention time amounted to 750 s.

The compound `CCCc1noc(-c2nc(-c3ccc(OC)c(OC)c3)no2)n1` returned an RP-LC retention time of 1050 s.
